Reference: US8492342B2, “Preprocalcitonin antigen T epitopes” (Institut Gustave Roussy, priority 2007, dated 2013)
pEC50: −log10 of the molar value.

What was measured:
human TAP = molecular target: T1, human TAP (Homo sapiens, UniProt Q03518+Q03519); assay: TAP involvement: CTL recognition of 293-EBNA transfectants cotransfected with ICP47; format: cell-based
T1 construct: endogenous in cells; host or cells: 293-EBNA cells
T1 sequence (Q03518 1-748): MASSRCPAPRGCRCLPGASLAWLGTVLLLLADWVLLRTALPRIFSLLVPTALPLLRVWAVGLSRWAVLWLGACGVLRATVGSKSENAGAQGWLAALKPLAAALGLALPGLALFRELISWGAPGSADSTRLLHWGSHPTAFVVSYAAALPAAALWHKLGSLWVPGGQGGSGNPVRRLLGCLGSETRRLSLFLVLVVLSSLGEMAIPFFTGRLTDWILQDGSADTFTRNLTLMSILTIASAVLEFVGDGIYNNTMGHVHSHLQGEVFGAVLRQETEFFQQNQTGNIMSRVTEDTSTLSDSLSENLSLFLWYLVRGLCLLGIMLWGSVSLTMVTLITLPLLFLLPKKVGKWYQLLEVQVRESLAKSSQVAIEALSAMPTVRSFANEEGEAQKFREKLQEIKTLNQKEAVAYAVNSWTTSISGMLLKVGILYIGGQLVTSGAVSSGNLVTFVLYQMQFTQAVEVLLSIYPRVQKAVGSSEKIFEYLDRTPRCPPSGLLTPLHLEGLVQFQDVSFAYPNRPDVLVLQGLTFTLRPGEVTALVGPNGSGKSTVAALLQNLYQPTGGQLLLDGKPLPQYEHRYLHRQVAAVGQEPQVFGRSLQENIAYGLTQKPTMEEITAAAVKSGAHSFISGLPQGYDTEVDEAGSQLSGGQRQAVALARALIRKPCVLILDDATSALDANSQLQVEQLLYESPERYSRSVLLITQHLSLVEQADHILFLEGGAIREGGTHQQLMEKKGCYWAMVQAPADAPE
T1 sequence (Q03519 1-686): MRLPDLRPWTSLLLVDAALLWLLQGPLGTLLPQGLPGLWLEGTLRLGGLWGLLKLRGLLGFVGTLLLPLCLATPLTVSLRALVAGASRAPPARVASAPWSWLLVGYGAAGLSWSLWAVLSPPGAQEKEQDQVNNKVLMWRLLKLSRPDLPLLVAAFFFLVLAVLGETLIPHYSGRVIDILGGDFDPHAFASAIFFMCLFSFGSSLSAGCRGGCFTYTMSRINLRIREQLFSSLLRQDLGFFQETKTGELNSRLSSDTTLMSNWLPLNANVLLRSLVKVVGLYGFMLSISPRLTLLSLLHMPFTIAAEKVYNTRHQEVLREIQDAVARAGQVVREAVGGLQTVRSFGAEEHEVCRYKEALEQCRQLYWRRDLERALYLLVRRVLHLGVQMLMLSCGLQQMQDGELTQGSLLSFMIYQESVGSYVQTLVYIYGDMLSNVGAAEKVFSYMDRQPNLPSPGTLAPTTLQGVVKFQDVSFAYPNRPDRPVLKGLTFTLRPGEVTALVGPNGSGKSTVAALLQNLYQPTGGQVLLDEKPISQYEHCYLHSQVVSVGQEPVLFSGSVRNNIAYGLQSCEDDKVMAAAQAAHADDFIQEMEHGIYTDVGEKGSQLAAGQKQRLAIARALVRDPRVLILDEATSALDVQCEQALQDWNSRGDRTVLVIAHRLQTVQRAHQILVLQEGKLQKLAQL
Protocol: FIG. 4: Processing of the preprocalcitonin16-25 peptide is proteasome- and TAP-independent. A. IGR-Heu target cells were incubated for 2 h at 37° C. in the presence or absence of the proteasome-specific inhibitor epoxomicin, and then Heu161 cells were added. The autologous Heu127 clone, recognizing on IGR-Heu a proteasome-dependent mutated α-actinin-4 peptide, was included as a positive control. TNFβ released in medium after 24 h of culture was measured as above. B. 293-EBNA cells were cotransfected with pCEP4 containing either cDNA 150 (upper panel) or the mutated α-actinin-4 cDNA (lower panel), with pcDNA3.1 containing an HLA-A*0201 construct, and with various amounts of vector pBJi-neo containing IPC47 cDNA. CTL clones Heu161 (upper panel) or Heu127 (lower panel) were then added. Controls included 293-EBNA cells transfected with HLA-A2 or pBJi-neo-IPC47 alone, and incubation of transfectants with either preprocalcitonin or α-actinin-4 peptides. Data shown are representative of four independent experiments.
The involvement of TAP was tested by cotransfecting into 293-EBNA cells constructs coding for the antigenic peptide, for HLA-A2, and for the immediate-early protein ICP47 of herpes simplex virus type 1, which binds to and inhibits human TAP (BANKS et al., Virology, 200, 236-45, 1994).

IGR-Heu tumor cells [1] = assay: Lysis (4 h 51Cr-release) by CTL clones of siRNA-electroporated IGR-Heu target cells; format: cell-based, human; conditions: CTL Heu161, FIG. 5C
Protocol: (§1) FIG. 5: Processing of the preprocalcitonin16-25 antigenic peptide involves SP and SPP. A. IGR-Heu tumor cells were incubated for 2 h at 37° C. with the serine protease inhibitor dichloroisocoumarin (DCI) at 250 μM, before addition of anti-preprocalcitonin (left panel) or anti-α-actinin-4 (right panel) CTL clones. B. Analysis of SPP mRNA expression by real-time RT-PCR analysis. Total RNA extracted from IGR-Heu tumor cells, electroporated or not with siRNA targeting SPP (siRNA-S1, siRNA-S2), was reverse-transcribed and quantified by TaqMan as described in Materials and Methods. C. Effect of SPP extinction on tumor cell recognition. Lytic activity of CTL clones Heu161 and Heu127 against IGR-Heu target cells, electroporated or not with siRNA-S1, siRNA-S2 or control siRNA, determined by a conventional 4 h ^51Cr-release assay at the indicated E/T ratios. Two representative experiments of six are shown for CTL clone Heu161. D. Production of IFNγ by Heu161 and Heu127 CTL clones stimulated with tumor cells electroporated or not with siRNA-S1 or control siRNA. E. The preprocalcitonin16-25 antigenic peptide is located at the C-terminus of the signal sequence of the calcitonin hormone precursor. […]
(§2) Cytotoxic activity was measured by a conventional 4-h ^51Cr-release assay using triplicate cultures in round-bottomed 96-well plates. Percent specific cytotoxicity was calculated conventionally; SD were <5%. […]

SPP = SPP expression in IGR-Heu cells electroporated with siRNA (real-time RT-PCR; protein); format: cell-based, human; conditions: for SPP expression at RNA level: 50 nM siRNA, 72 h, FIG. 5B; for SPP expression at protein level: data not shown
Protocol: FIG. 5: Processing of the preprocalcitonin16-25 antigenic peptide involves SP and SPP. A. IGR-Heu tumor cells were incubated for 2 h at 37° C. with the serine protease inhibitor dichloroisocoumarin (DCI) at 250 μM, before addition of anti-preprocalcitonin (left panel) or anti-α-actinin-4 (right panel) CTL clones. B. Analysis of SPP mRNA expression by real-time RT-PCR analysis. Total RNA extracted from IGR-Heu tumor cells, electroporated or not with siRNA targeting SPP (siRNA-S1, siRNA-S2), was reverse-transcribed and quantified by TaqMan as described in Materials and Methods. C. Effect of SPP extinction on tumor cell recognition. Lytic activity of CTL clones Heu161 and Heu127 against IGR-Heu target cells, electroporated or not with siRNA-S1, siRNA-S2 or control siRNA, determined by a conventional 4 h ^51Cr-release assay at the indicated E/T ratios. Two representative experiments of six are shown for CTL clone Heu161. D. Production of IFNγ by Heu161 and Heu127 CTL clones stimulated with tumor cells electroporated or not with siRNA-S1 or control siRNA. E. The preprocalcitonin16-25 antigenic peptide is located at the C-terminus of the signal sequence of the calcitonin hormone precursor. The optimal peptide recognized by CTL clone Heu161 is boxed. Arrows indicate the signal peptidase (SP) and the approximate signal peptide peptidase (SPP) cleavage sites. The n, h and c regions in the preprocalcitonin signal peptide were predicted using SignalP 3.0 software.
For SPP inhibition, we first tried the cysteine protease inhibitor Z-LL2 ketone (Calbiochem, Darmstadt, Germany), which was reported to specifically block SPP activity (WEIHOFEN et al., J Biol Chem, 275, 30951-6, 2000). No conclusive results were obtained in functional assays. We thus used siRNA targeting human SPP, siRNA-S1 (5-GACAUGCCUGAAACAAUCAtt-3; SEQ ID NO: 3) and siRNA-S2 (5-UGAUUGUUUCAGGCAUGUCtg-3; SEQ ID NO: 4), purchased from Ambion (Austin, Tex. USA). Non-targeting siRNA (Ambion) were used as negative control (siRNA Control). Briefly, IGR-Heu cells were transfected by electroporation with 50 nM siRNA in a Gene Pulser Xcell Electroporation System (Bio-Rad; 300 V, […]) as previously described (LE FLOC'H et al., J Exp Med, 2007) and then allowed to grow for 72 h.
For SPP mRNA expression, total RNA from IGR-Heu cells, transfected or not with siRNA-S 1 and siRNA-S2 targeting SPP, was extracted, reverse-transcribed and quantified by real-time RT-PCR analysis (TaqMan). PCR primers and probe were designed by Applied Biosystems and used according to the manufacturer's recommendations. The amount of RNA sample was normalized by amplification of an endogenous control (18S). […]

CTL clone Heu161 = assay: CTL stimulation (TNF release) by synthetic peptides loaded on HLA-A2+ MZ2-MEL.3.1 melanoma cells; format: cell-based, human
Protocol: FIG. 3: Identification of the antigenic peptide recognized by CTL clone Heu161. A. CTL stimulation with purified synthetic peptides. Peptides were loaded on allogeneic HLA-A2^+ MZ2-MEL.3.1 melanoma cells for 60 min at room temperature before addition of CTL clone Heu161. TNF release was measured 16 h later. Empty circles represent the results obtained with peptide SEQ ID NO: 1, full circles represent the results obtained with peptide SEQ ID NO: 2, empty squares represent the results obtained with peptide SEQ ID NO: 24, full squares represent the results obtained with peptide SEQ ID NO: 25 and empty diamonds represent the results obtained with peptide SEQ ID NO: 26. B. Lytic activity of CTL clone on peptide-pulsed cells. ^51Cr-labeled Heu-EBV-B cells were incubated over 60 min with the indicated concentrations of peptides before addition of CTL clone Heu161 at an E/T cell ratio of 10:1. Chromium release was measured after 4 h. Empty circles represent the results obtained with peptide SEQ ID NO: 1, full circles represent the results obtained with peptide SEQ ID NO: 2
TNFβ was detected by measuring the cytotoxicity of the culture medium on TNF-sensitive WEHI-164c13 cells with a MTT colorimetric assay (ESPEVIK & NISSEN-MEYER, J Immunol Methods, 95, 99-105, 1986).
We then prepared a series of calcitonin cDNA fragments truncated at their 5′ end and engineered to contain an initiation codon and a Kozak consensus sequence. […] Further trimming narrowed down the peptide-encoding region to residues 9-38 (FIG. 2B). Among a set of overlapping peptides covering this region, only two were recognized by CTL clone Heu161: VLLQAGSLHA (SEQ ID NO: 1) and LVLLQAGSLHA (SEQ ID NO: 2), which are identical, but with an additional leucine in the latter peptide. […] In a lysis assay, the decamer was slightly more efficient than the 11-mer peptide by a factor of about three (FIG. 3B). We concluded that the optimal antigenic peptide recognized by CTL clone Heu161 was VLLQAGSLHA (SEQ ID NO: 1) or preprocalcitonin16-25. This peptide corresponds exactly to the C-terminal part of the preprocalcitonin signal peptide (LE MOULLEC et al., FEBS Lett, 167, 93-7, 1984).

IGR-Heu tumor cells [2] = assay: SP inhibition: lysis by CTL clones of DCI-treated IGR-Heu tumor cells; format: cell-based, human; conditions: pre-incubation of IGR-Heu, 250 μM, 2 h 37° C.; FIG. 5A
Protocol: as §1, §2

Compound | sensitivity of tumor cells to lysis by anti-preprocalcitonin CTL clone (IGR-Heu tumor cells [1]) | SPP expression at RNA level (SPP) | SPP expression at protein level (SPP) | further results
ICP47: immediate-early protein ICP47 of herpes simplex virus type 1, which binds to and inhibits human TAP; expressed by cotransfection |  |  |  | effect on recognition of transfectants by anti-preprocalcitonin CTLs (human TAP; cDNA 150 + HLA-A2, FIG. 4B): no detectable effect; effect on recognition of transfectants by anti-α-actinin-4 CTL clone (human TAP; mutated α-actinin-4 cDNA + HLA-A2, FIG. 4B): strongly inhibited
5-GACAUGCCUGAAACAAUCAtt-3 [siRNA-S1] | strong decrease | specifically inhibit SPP expression | specifically inhibit SPP expression | 
LVLLQAGSLHA [SEQ ID NO: 2] |  |  |  | pEC50 (CTL clone Heu161; HLA-A2+ melanoma cells loaded 60 min, TNF release after 16 h, FIG. 3A, read-out: peptide concentration giving half-maximal effect (sensitization to recognition by CTL Heu161)): ~8.00; recognition of peptide by CTL clone Heu161 (CTL clone Heu161; overlapping synthetic peptides of preprocalcitonin): recognized
O=c1oc(Cl)c(Cl)c2ccccc12 [DCI, dichloroisocoumarin] |  |  |  | effect on lysis by anti-preprocalcitonin CTL clone (IGR-Heu tumor cells [2]): totally resistant to lysis; effect on recognition by anti-α-actinin-4 CTL clone (IGR-Heu tumor cells [2]): only a moderate effect
5-UGAUUGUUUCAGGCAUGUCtg-3 [siRNA-S2] | strong decrease | specifically inhibit SPP expression | specifically inhibit SPP expression | 
